pIC50: −log10 of the molar value. Where a name gives a salt, the structure may show the parent alone.

As usually defined, the pIC50 is the negative decadic logarithm of the IC50, by convention in mol/L.

The test deals with rat TRPV1 (Rattus norvegicus (Rat), UniProt O35433). Particulars: read-out: Rat IC50.
rat TRPV1, sequence (O35433 whole entry): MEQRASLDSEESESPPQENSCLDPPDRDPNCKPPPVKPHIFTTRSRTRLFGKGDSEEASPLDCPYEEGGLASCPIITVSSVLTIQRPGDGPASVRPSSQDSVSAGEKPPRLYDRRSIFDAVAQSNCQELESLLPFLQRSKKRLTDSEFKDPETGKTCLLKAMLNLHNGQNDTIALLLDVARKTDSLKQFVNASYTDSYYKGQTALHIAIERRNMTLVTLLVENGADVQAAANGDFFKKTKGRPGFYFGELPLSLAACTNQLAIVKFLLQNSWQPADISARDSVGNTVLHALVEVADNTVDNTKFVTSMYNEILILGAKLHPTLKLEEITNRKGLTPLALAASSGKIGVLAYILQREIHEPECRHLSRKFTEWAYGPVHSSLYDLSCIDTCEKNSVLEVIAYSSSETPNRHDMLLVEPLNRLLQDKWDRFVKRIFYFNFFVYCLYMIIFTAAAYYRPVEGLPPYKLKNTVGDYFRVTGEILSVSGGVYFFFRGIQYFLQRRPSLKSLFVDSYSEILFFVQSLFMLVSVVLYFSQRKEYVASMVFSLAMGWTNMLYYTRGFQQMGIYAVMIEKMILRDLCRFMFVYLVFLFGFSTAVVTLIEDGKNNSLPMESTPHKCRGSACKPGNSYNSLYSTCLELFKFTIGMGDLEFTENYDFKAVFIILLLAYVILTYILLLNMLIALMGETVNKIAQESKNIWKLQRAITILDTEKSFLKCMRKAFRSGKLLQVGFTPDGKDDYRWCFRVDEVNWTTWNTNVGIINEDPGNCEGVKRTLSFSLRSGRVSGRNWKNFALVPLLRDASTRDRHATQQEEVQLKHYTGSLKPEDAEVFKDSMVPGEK
For `CC(C)c1nc2c(c(Nc3ccc(C(F)(F)F)cc3F)n1)CCN(c1ncccc1C(F)(F)F)CC2` [Example 155, N-[2-Fluoro-4-(trifluoromethyl)phenyl]-2-(1-methylethyl)-7-[3-(trifluoromethyl)pyridin-2-yl]-6,7,8,9-tetrahydro-5H-pyrimido[4,5-d]azepin-4-amine], the negative logarithm of the IC50 (pIC50) was 5.48.
For `CC(=O)c1ccc(Nc2nc(N3CCCCC3)nc3c2CCN(c2ncccc2C(F)(F)F)CC3)cc1` [Example 156, 1-[4-({2-Piperidin-1-yl-7-[3-(trifluoromethyl)pyridin-2-yl]-6,7,8,9-tetrahydro-5H-pyrimido[4,5-d]azepin-4-yl}amino)phenyl]ethanone] the value was 6.23.
As for `Fc1cc(Nc2nc(N3CCCCC3)nc3c2CCN(c2ncccc2C(F)(F)F)CC3)ccc1C(F)(F)F` [Example 157, N-[3-Fluoro-4-(trifluoromethyl)phenyl]-2-piperidin-1-yl-7-[3-(trifluoromethyl)pyridin-2-yl]-6,7,8,9-tetrahydro-5H-pyrimido[4,5-d]azepin-4-amine], the pIC50 is 7.15.
For `CN(C)S(=O)(=O)c1ccc(Nc2nc(N3CCCCC3)nc3c2CCN(c2ncccc2C(F)(F)F)CC3)cc1` [Example 158, N,N-Dimethyl-4-({2-piperidin-1-yl-7-[3-(trifluoromethyl)pyridin-2-yl]-6,7,8,9-tetrahydro-5H-pyrimido[4,5-d]azepin-4-yl}amino)benzenesulfonamide] the value was 7.22; for `CC(C)(C)c1ccc(Nc2nc(N3CCCCC3)nc3c2CCN(c2ncccc2C(F)(F)F)CC3)cc1[N+](=O)[O-]` [Example 159, N-[4-(1,1-Dimethylethyl)-3-nitrophenyl]-2-piperidin-1-yl-7-[3-(trifluoromethyl)pyridin-2-yl]-6,7,8,9-tetrahydro-5H-pyrimido[4,5-d]azepin-4-amine], 7.52.
Next, `CSc1ccc(Nc2nc(N3CCCCC3)nc3c2CCN(c2ncccc2C(F)(F)F)CC3)cc1` [Example 160, N-[4-(Methylsulfanyl)phenyl]-2-piperidin-1-yl-7-[3-(trifluoromethyl)pyridin-2-yl]-6,7,8,9-tetrahydro-5H-pyrimido[4,5-d]azepin-4-amine]: 7.00; `CC(C)c1nc2c(c(Nc3ccc4c(c3)N(C)CCC4)n1)CCN(c1ncccc1C(F)(F)F)CC2` [Example 161, [2-Isopropyl-7-(3-trifluoromethyl-pyridin-2-yl)-6,7,8,9-tetrahydro-5H-pyrimido[4,5-d]azepin-4-yl]-(1-methyl-1,2,3,4-tetrahydro-quinolin-7-yl)-amine]: 6.89.
For `CC(C)c1nc2c(c(Nc3ccc4c(c3)N(C)CCC4(C)C)n1)CCN(c1ncccc1C(F)(F)F)CC2` [Example 162, [2-Isopropyl-7-(3-trifluoromethyl-pyridin-2-yl)-6,7,8,9-tetrahydro-5H-pyrimido[4,5-d]azepin-4-yl]-(1,4,4-trimethyl-1,2,3,4-tetrahydro-quinolin-7-yl)-amine] the value was 7.52; for `CN1CCCc2ccc(Nc3nc(N4CCCCC4)nc4c3CCN(c3ncccc3C(F)(F)F)CC4)cc21` [Example 163, (1-Methyl-1,2,3,4-tetrahydro-quinolin-7-yl)-[2-piperidin-1-yl-7-(3-trifluoromethyl-pyridin-2-yl)-6,7,8,9-tetrahydro-5H-pyrimido[4,5-d]azepin-4-yl]-amine hydrochloride salt], 6.92; for `CN1CCC(C)(C)c2ccc(Nc3nc(N4CCCCC4)nc4c3CCN(c3ncccc3C(F)(F)F)CC4)cc21` [Example 164, [2-Piperidin-1-yl-7-(3-trifluoromethyl-pyridin-2-yl)-6,7,8,9-tetrahydro-5H-pyrimido[4,5-d]azepin-4-yl]-(1,4,4-trimethyl-1,2,3,4-tetrahydro-quinolin-7-yl)-amine hydrochloride salt], 7.70.
In the case of `CC(C)c1nc2c(c(Nc3ccc(N4CCCC4)nc3)n1)CCN(c1ncccc1C(F)(F)F)CC2` [Example 165, [2-Isopropyl-7-(3-trifluoromethyl-pyridin-2-yl)-6,7,8,9-tetrahydro-5H-pyrimido[4,5-d]azepin-4-yl]-(6-pyrrolidin-1-yl-pyridin-3-yl)-amine], the pIC50 was 5.65.
As for `Fc1cc(C(F)(F)F)ccc1Nc1nc(N2CCCCC2)nc2c1CCN(c1ncccc1C(F)(F)F)CC2` [Example 166], the negative-log IC50 (pIC50) was 6.42.
Take `FC(F)(F)c1ccc(Nc2nc(-c3ccncc3)nc3c2CCN(c2ncccc2C(F)(F)F)CC3)cc1` [Example 167, 2-Pyridin-4-yl-N-[4-(trifluoromethyl)phenyl]-7-[3-(trifluoromethyl)pyridin-2-yl]-6,7,8,9-tetrahydro-5H-pyrimido[4,5-d]azepin-4-amine trifluoroacetic acid salt]: the pIC50 was 6.43.
As for `CC(C)(C)c1ccc(Nc2nc(-c3ccncc3)nc3c2CCN(c2ncccc2C(F)(F)F)CC3)cc1` [Example 168, N-[4-(1,1-Dimethylethyl)phenyl]-2-pyridin-4-yl-7-[3-(trifluoromethyl)pyridin-2-yl]-6,7,8,9-tetrahydro-5H-pyrimido[4,5-d]azepin-4-amine trifluoroacetic acid salt], the pIC50 was 7.52.
Next, `FC(F)(F)c1ccc(Nc2nc(-c3ccncc3)nc3c2CCN(c2ncccc2C(F)(F)F)CC3)cc1Cl` [Example 169, N-[3-Chloro-4-(trifluoromethyl)phenyl]-2-pyridin-4-yl-7-[3-(trifluoromethyl)pyridin-2-yl]-6,7,8,9-tetrahydro-5H-pyrimido[4,5-d]azepin-4-amine]: 6.00; `FC(F)(F)c1ccc(Nc2nc(-c3ccncc3)nc3c2CCN(c2ncccc2C(F)(F)F)CC3)cn1` [Example 170, 2-Pyridin-4-yl-7-[3-(trifluoromethyl)pyridin-2-yl]-N-[6-(trifluoromethyl)pyridin-3-yl]-6,7,8,9-tetrahydro-5H-pyrimido[4,5-d]azepin-4-amine trifluoroacetic acid salt]: 7.22.
Consider `CC(C)(C)c1ccc(Nc2nc(-c3ccccn3)nc3c2CCN(c2ncccc2C(F)(F)F)CC3)cc1` [Example 171, N-[4-(1,1-Dimethylethyl)phenyl]-2-pyridin-2-yl-7-[3-(trifluoromethyl)pyridin-2-yl]-6,7,8,9-tetrahydro-5H-pyrimido[4,5-d]azepin-4-amine trifluoroacetic acid salt], for which the pIC50 is 7.10.
For `FC(F)(F)c1ccc(Nc2nc(-c3ccccn3)nc3c2CCN(c2ncccc2C(F)(F)F)CC3)cc1` [Example 172, 2-Pyridin-2-yl-N-[4-(trifluoromethyl)phenyl]-7-[3-(trifluoromethyl)pyridin-2-yl]-6,7,8,9-tetrahydro-5H-pyrimido[4,5-d]azepin-4-aminele 1 trifluoroacetic acid salt], the negative logarithm of the IC50 (pIC50) was 6.89.
For `FC(F)(F)c1ccc(Nc2nc(-c3ccccn3)nc3c2CCN(c2ncccc2C(F)(F)F)CC3)cc1Cl` [Example 173, N-[3-Chloro-4-(trifluoromethyl)phenyl]-2-pyridin-2-yl-7-[3-(trifluoromethyl)pyridin-2-yl]-6,7,8,9-tetrahydro-5H-pyrimido[4,5-d]azepin-4-amine trifluoroacetic acid salt] the value was 6.68; for `COC(=O)C(C)(C)c1ccc(Nc2nc(C(C)C)nc3c2CCN(c2ncccc2C(F)(F)F)CC3)cc1` [Example 174, Methyl 2-methyl-2-[4-({2-(1-methylethyl)-7-[3-(trifluoromethyl)pyridin-2-yl]-6,7,8,9-tetrahydro-5H-pyrimido[4,5-d]azepin-4-yl}amino)phenyl]propanoate], 5.70; for `COC(=O)C(C)(C)c1ccc(Nc2nc(N3CCCCC3)nc3c2CCN(c2ncccc2C(F)(F)F)CC3)cc1` [Example 175, Methyl 2-methyl-2-[4-({2-piperidin-1-yl-7-[3-(trifluoromethyl)pyridin-2-yl]-6,7,8,9-tetrahydro-5H-pyrimido[4,5-d]azepin-4-yl}amino)phenyl]propanoate], 7.10.
Next, `FC(F)(F)c1ccc(Nc2nc(-c3cccnc3)nc3c2CCN(c2ncccc2C(F)(F)F)CC3)cc1` [Example 176, 2-Pyridin-3-yl-N-[4-(trifluoromethyl)phenyl]-7-[3-(trifluoromethyl)pyridin-2-yl]-6,7,8,9-tetrahydro-5H-pyrimido[4,5-d]azepin-4-amine trifluoroacetic acid salt]: 6.09.
For `CC(C)(O)c1ccc(Nc2nc(N3CCCCC3)nc3c2CCN(c2ncccc2C(F)(F)F)CC3)cc1` [Example 177, 2-[4-({2-Piperidin-1-yl-7-[3-(trifluoromethyl)pyridin-2-yl]-6,7,8,9-tetrahydro-5H-pyrimido[4,5-d]azepin-4-yl}amino)phenyl]propan-2-ol], the pIC50 was 7.05.
`CC(C)c1nc2c(c(Nc3ccc(C(C)(C)O)cc3)n1)CCN(c1ncccc1C(F)(F)F)CC2` [Example 178, 2-[4-({2-(1-Methylethyl)-7-[3-(trifluoromethyl)pyridin-2-yl]-6,7,8,9-tetrahydro-5H-pyrimido[4,5-d]azepin-4-yl}amino)phenyl]propan-2-ol]: the pIC50 was 6.96.
For the compound `CC(C)c1nc2c(c(Nc3ccc(C(C)(O)C(F)(F)F)cc3)n1)CCN(c1ncccc1C(F)(F)F)CC2` (stereo not drawn) [Example 179, 1,1,1-Trifluoro-2-[4-({2-(1-methylethyl)-7-[3-(trifluoromethyl)pyridin-2-yl]-6,7,8,9-tetrahydro-5H-pyrimido[4,5-d]azepin-4-yl}amino)phenyl]propan-2-ol], the negative-log IC50 (pIC50) was 5.87.
For `CC(O)(c1ccc(Nc2nc(N3CCCCC3)nc3c2CCN(c2ncccc2C(F)(F)F)CC3)cc1)C(F)(F)F` (stereo not drawn) [Example 180, 1,1,1-Trifluoro-2-[4-({2-piperidin-1-yl-7-[3-(trifluoromethyl)pyridin-2-yl]-6,7,8,9-tetrahydro-5H-pyrimido[4,5-d]azepin-4-yl}amino)phenyl]propan-2-ol] the value was under 5.18.
For `CC(C)c1nc2c(c(Nc3ccc(C(C)(C)CO)cc3)n1)CCN(c1ncccc1C(F)(F)F)CC2` [Example 181, 2-Methyl-2-[4-({2-(1-methylethyl)-7-[3-(trifluoromethyl)pyridin-2-yl]-6,7,8,9-tetrahydro-5H-pyrimido[4,5-d]azepin-4-yl}amino)phenyl]propan-1-ol] the value was 6.09.
